Measured values as given in patent publication US20110040088A1, “FUSED HETEROCYCLIC COMPOUNDS” (priority 2003, published 2011).
Read-outs that look alike come from different tables or passages of the source.

Tests used:
rat 5-HT7a receptor = biological target: T1, rat 5-HT7a receptor (Rattus norvegicus, UniProt P32305); assay: 5-HT7 receptor radioligand binding ([3H]5-CT, membranes of transfected HEK-293 cells); conditions: rat 5-HT7a in HEK-293 membranes, 1 nM [3H]5-CT
T1 construct: expressed in transfected cells

5-HT2A receptor = 5-HT2A receptor (UniProt P28223); assay: 5-HT2A receptor radioligand binding ([3H]ketanserin); conditions: read-out: Ki 5-HT2A, table does not say whether rat cortex or human recombinant (NIH3T3) receptor;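 also: competitive displacement binding on membranes, either from rat cerebral cortex or from NIH3T3 cells stably expressing human 5-HT2A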
Procedure: The affinity of the compounds for the rat 5-HT2A receptor was evaluated by competitive radioligand binding assay using [^3H]ketanserine as the radioligand. The assay was performed on membranes from rat cortex as previously described (Schotte, A. et al., Psychopharmacology (1996) 124: 57-73). Briefly, brain tissue (rat cortex) was homogenized in 20 volumes per wet weight tissue of Tris-HCl buffer (50 mM, pH 7.4). The total membrane fraction was collected by centrifugation and washed by subsequent centrifugation runs (25 min at 25,000 g at 4° C.). Membranes were re-suspended in Tris-HCl buffer (50 mM, pH 7.4) containing 1 nM [^3H]ketanserin. Non-specific binding was estimated in the presence of 10 μM risperidone.

[1] = biological target: human recombinant 5-HT2B receptor (Homo sapiens, UniProt P41595); assay: 5-HT2B receptor radioligand binding ([3H]mesulergine, CHO membranes);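 also: competitive displacement binding on membranes of CHO cells stably expressing the receptor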
Procedure: (§1) Affinity for 5HT2 Receptor Binding Sites
(§2) Receptor binding was performed using the human recombinant 5-HT2A (GB: X57830), 5-HT2B (GB: Z36748) and 5-HT2c (GB: M81778) receptors. The affinity of the compounds for the 3 different human 5-HT2 receptor subtypes was evaluated by competitive radioligand binding assays using [^3H]ketanserin (h5-HT2A) or [^3H]mesulergine (h5-HT2B and h5-HT2c). The assays were performed on membranes prepared from NIH3T3 stably transfected with h5-HT2A or CHO stably transfected with h5-HT2B and h5-HT2C.

[2] = biological target: T2, human recombinant 5-HT2C receptor (Homo sapiens, UniProt P28335); assay: 5-HT2C receptor radioligand binding ([3H]mesulergine, CHO membranes);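 also: competitive displacement of the tritiated ligand, using membranes from CHO cells stably transfected with the human receptor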
T2 sequence (P28335 33-458): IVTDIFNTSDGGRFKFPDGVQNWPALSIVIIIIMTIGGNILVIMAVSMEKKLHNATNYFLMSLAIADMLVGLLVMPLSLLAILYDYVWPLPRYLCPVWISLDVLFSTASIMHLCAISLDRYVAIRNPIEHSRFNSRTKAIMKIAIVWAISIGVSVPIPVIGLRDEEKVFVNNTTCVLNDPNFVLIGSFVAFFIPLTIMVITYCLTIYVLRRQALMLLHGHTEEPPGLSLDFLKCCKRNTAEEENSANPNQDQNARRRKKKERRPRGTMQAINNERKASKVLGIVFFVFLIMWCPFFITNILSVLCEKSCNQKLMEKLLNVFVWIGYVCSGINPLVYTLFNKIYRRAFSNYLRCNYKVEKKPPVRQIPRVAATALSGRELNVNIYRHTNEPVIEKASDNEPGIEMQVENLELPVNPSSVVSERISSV
Procedure: as §1, §2

Sequence of human recombinant 5-HT2B receptor (P41595 whole entry): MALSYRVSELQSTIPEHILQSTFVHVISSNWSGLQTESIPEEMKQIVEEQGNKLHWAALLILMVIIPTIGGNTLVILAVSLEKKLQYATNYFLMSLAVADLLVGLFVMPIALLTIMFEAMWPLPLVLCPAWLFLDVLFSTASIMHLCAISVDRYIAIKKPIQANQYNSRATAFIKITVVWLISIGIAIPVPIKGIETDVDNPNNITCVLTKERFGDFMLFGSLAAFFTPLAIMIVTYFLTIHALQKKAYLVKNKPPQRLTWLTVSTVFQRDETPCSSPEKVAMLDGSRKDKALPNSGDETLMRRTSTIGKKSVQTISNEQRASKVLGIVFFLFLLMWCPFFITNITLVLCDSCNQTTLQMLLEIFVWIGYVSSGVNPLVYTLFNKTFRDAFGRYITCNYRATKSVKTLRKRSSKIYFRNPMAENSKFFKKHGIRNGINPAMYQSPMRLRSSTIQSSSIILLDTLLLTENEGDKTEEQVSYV
T1 sequence (P32305 whole entry): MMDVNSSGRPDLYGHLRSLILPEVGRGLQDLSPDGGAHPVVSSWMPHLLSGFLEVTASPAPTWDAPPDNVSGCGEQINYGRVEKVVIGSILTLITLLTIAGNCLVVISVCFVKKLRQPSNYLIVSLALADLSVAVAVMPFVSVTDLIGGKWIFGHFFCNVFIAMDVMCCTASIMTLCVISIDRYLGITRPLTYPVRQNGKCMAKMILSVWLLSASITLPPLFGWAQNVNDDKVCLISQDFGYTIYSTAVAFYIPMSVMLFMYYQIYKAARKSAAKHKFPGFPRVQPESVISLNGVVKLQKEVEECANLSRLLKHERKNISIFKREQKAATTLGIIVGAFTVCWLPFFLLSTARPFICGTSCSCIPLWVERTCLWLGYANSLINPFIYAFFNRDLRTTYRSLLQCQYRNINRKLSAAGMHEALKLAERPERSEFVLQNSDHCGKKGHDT

SMILES	Ki (rat 5-HT7a receptor)	Ki (5-HT2A receptor)	Ki [1]	Ki [2]	Ki ([2]; read-out: Ki 5-HT2C, h5-HT2C in CHO membranes, [3H]mesulergine)
Fc1ccc(-c2c3c(nn2C2CCC2)CCNCC3)cc1 [Example 277, 2-Cyclobutyl-3-(4-fluoro-phenyl)-2,4,5,6,7,8-hexahydro-1,2,6-triaza-azulene]	150 nM	0.9 nM	3 nM	40 nM	–
CC1Cc2nn(C3CCCC3)c(-c3ccc(F)cc3)c2CCN1 (stereo not shown) [Example 308, 2-Cyclopentyl-3-(4-fluoro-phenyl)-7-methyl-2,4,5,6,7,8-hexahydro-1,2,6-triaza-azulene]	5200 nM	2 nM	3 nM	162 nM	–
Cc1cccc(Cn2nc(-c3ccc(Cl)cc3)c3c2CCNCC3)c1 [Example 74, 3-(4-Chloro-phenyl)-1-(3-methyl-benzyl)-1,4,5,6,7,8-hexahydro-1,2,6-triaza-azulene]	5 nM	100 nM	94 nM	180 nM	–
c1cc(-c2c3c(nn2C2CCCC2)CCNCC3)cs1 [Example 192, 2-Cyclopentyl-3-thiophen-3-yl-2,4,5,6,7,8-hexahydro-1,2,6-triaza-azulene]	20 nM	2.5 nM	0.9 nM	15 nM	–
c1ccc(-c2c3c(nn2C2CCCC2)CCNCC3)cc1 [Example 180, 2-Cyclopentyl-3-phenyl-2,4,5,6,7,8-hexahydro-1,2,6-triaza-azulene]	10 nM	1.5 nM	1.4 nM	12 nM	–
CCC(CC)n1nc2c(c1-c1ccccc1)CCNCC2 [Example 186, 2-(1-Ethyl-propyl)-3-phenyl-2,4,5,6,7,8-hexahydro-1,2,6-triaza-azulene]	61 nM	1 nM	24 nM	20 nM	–
CC1CNCCc2c1nn(C(C)C)c2-c1ccc(F)cc1 (stereo not shown) [Example 306, 3-(4-Fluoro-phenyl)-2-isopropyl-8-methyl-2,4,5,6,7,8-hexahydro-1,2,6-triaza-azulene]	120 nM	1 nM	22 nM	39 nM	–
CC1Cc2nn(C(C)C)c(-c3ccccc3)c2CCN1 (stereo not shown) [Example 311, 2-Isopropyl-7-methyl-3-phenyl-2,4,5,6,7,8-hexahydro-1,2,6-triaza-azulene]	80 nM	140 nM	100 nM	3000 nM	–
Fc1cc(-c2c3c(nn2C2CCCC2)CCNCC3)ccc1Cl [Example 241, 3-(4-Chloro-3-fluoro-phenyl)-2-cyclopentyl-2,4,5,6,7,8-hexahydro-1,2,6-triaza-azulene]	310 nM	9 nM	9.5 nM	38 nM	–
Cc1ccc(-c2c3c(nn2C2CCC2)CCNCC3)cc1 [Example 278, 2-Cyclobutyl-3-p-tolyl-2,4,5,6,7,8-hexahydro-1,2,6-triaza-azulene]	35 nM	0.1 nM	0.2 nM	10 nM	–
FC(F)(F)c1ccc(-c2c3c(nn2C2CCC2)CCNCC3)cc1 [Example 279, 2-Cyclobutyl-3-(4-trifluoromethyl-phenyl)-2,4,5,6,7,8-hexahydro-1,2,6-triaza-azulene]	80 nM	0.8 nM	1 nM	45 nM	–
N#Cc1ccc(-c2c3c(nn2C2CC2)CCNCC3)cc1 [Example 286, 4-(2-Cyclopropyl-2,4,5,6,7,8-hexahydro-1,2,6-triaza-azulen-3-yl)-benzonitrile]	335 nM	50 nM	80 nM	5000 nM	–
Fc1ccc(Cn2nc(-c3ccc(Cl)cc3)c3c2CCNCC3)cc1 [Example 75, 3-(4-Chloro-phenyl)-1-(4-fluoro-benzyl)-1,4,5,6,7,8-hexahydro-1,2,6-triaza-azulene]	7 nM	200 nM	100 nM	320 nM	–
Clc1ccc(-c2nn(Cc3ccncc3)c3c2CCNCC3)cc1 [Example 316, 3-(4-Chloro-phenyl)-1-pyridin-4-ylmethyl-1,4,5,6,7,8-hexahydro-1,2,6-triaza-azulene]	9.1 nM	60 nM	530 nM	5000 nM	–
Fc1ccc(-c2c3c(nn2C2CCCC2)CCNCC3)cc1F [Example 236, 2-Cyclopentyl-3-(3,4-difluoro-phenyl)-2,4,5,6,7,8-hexahydro-1,2,6-triaza-azulene]	950 nM	7 nM	4.5 nM	32 nM	–
Fc1ccc(-c2c3c(nn2C2CCCC2)CCNCC3)cc1 [Example 182, 2-Cyclopentyl-3-(4-fluoro-phenyl)-2,4,5,6,7,8-hexahydro-1,2,6-triaza-azulene]	90 nM	0.74 nM	1.4 nM	18 nM	–

SMILES	Ki (rat 5-HT7a receptor)	Ki (5-HT2A receptor)	Ki [1]	Ki [2]	Ki ([2]; read-out: Ki 5-HT2C, h5-HT2C in CHO membranes, [3H]mesulergine)
Cc1ccc(-c2c3c(nn2C2CCCC2)CC(C)NCC3)cc1 (stereo not shown) [Example 310, 2-Cyclopentyl-7-methyl-3-p-tolyl-2,4,5,6,7,8-hexahydro-1,2,6-triaza-azulene]	475 nM	0.2 nM	0.4 nM	30 nM	–
CCC(CC)n1nc2c(c1-c1ccc(F)c(C)c1)CCNCC2 [Example 283, 2-(1-Ethyl-propyl)-3-(4-fluoro-3-methyl-phenyl)-2,4,5,6,7,8-hexahydro-1,2,6-triaza-azulene]	5000 nM	10 nM	60 nM	150 nM	–
CCC(C)n1nc2c(c1-c1ccc(C)cc1)CCNCC2 (stereo not shown) [Example 300, 2-sec-Butyl-3-p-tolyl-2,4,5,6,7,8-hexahydro-1,2,6-triaza-azulene]	10 nM	0.3 nM	0.8 nM	12 nM	–
c1cc(-c2c3c(nn2C2CCCC2)CCNCC3)co1 [Example 232, 2-Cyclopentyl-3-furan-3-yl-2,4,5,6,7,8-hexahydro-1,2,6-triaza-azulene]	20 nM	25 nM	0.5 nM	66 nM	–
CCC(C)n1nc2c(c1-c1ccc(C(F)(F)F)cc1)CCNCC2 (stereo not shown) [Example 301, 2-sec-Butyl-3-(4-trifluoromethyl-phenyl)-2,4,5,6,7,8-hexahydro-1,2,6-triaza-azulene]	40 nM	1.6 nM	3 nM	100 nM	–
FC(F)(F)c1ccc(-c2c3c(nn2C2CCCC2)CCNCC3)cc1 [Example 218, 2-Cyclopentyl-3-(4-trifluoromethyl-phenyl)-2,4,5,6,7,8-hexahydro-1,2,6-triaza-azulene]	75 nM	1.7 nM	1.8 nM	15 nM	–
CC1CN(Cc2ccccc2)CCc2c1nn(C(C)C)c2-c1ccc(F)cc1 (stereo not shown) [Example 305, 6-Benzyl-3-(4-fluoro-phenyl)-2-isopropyl-8-methyl-2,4,5,6,7,8-hexahydro-1,2,6-triaza-azulene]	600 nM	20 nM	60 nM	2200 nM	–
Clc1ccc(-c2c3c(nn2C2CCCC2)CCNCC3)cc1 [Example 181, 3-(4-Chloro-phenyl)-2-cyclopentyl-2,4,5,6,7,8-hexahydro-1,2,6-triaza-azulene]	37 nM	1.5 nM	1.8 nM	11 nM	–
c1cc(-c2c3c(nn2C2CC2)CCNCC3)cs1 [Example 285, 2-Cyclopropyl-3-thiophen-3-yl-2,4,5,6,7,8-hexahydro-1,2,6-triaza-azulene]	29 nM	60 nM	6 nM	500 nM	–
Clc1ccc(-c2nn(Cc3cccs3)c3c2CCNCC3)cc1 [Example 103, 3-(4-Chloro-phenyl)-1-thiophen-2-ylmethyl-1,4,5,6,7,8-hexahydro-1,2,6-triaza-azulene]	7.7 nM	60 nM	44 nM	150 nM	–
CCC(CC)n1nc2c(c1-c1ccc(F)cc1)CCNCC2 [Example 184, 2-(1-Ethyl-propyl)-3-(4-fluoro-phenyl)-2,4,5,6,7,8-hexahydro-1,2,6-triaza-azulene]	120 nM	1 nM	17 nM	15 nM	–
Cc1ccc(-c2c3c(nn2C2CC2)CCNCC3)cc1 [Example 284, 2-Cyclopropyl-3-p-tolyl-2,4,5,6,7,8-hexahydro-1,2,6-triaza-azulene]	10 nM	1 nM	2 nM	60 nM	–
c1ccc(-c2c3c(nn2C2CCC2)CCNCC3)cc1 [Example 276, 2-Cyclobutyl-3-phenyl-2,4,5,6,7,8-hexahydro-1,2,6-triaza-azulene]	90 nM	3 nM	2.5 nM	–	90 nM
CCC(C)n1nc2c(c1-c1ccccc1)CCNCC2 (stereo not shown) [Example 298, 2-sec-Butyl-3-phenyl-2,4,5,6,7,8-hexahydro-1,2,6-triaza-azulene]	50 nM	5 nM	6.5 nM	60 nM	–
CN1CCc2nn(C3CCCC3)c(-c3ccc(F)cc3)c2CC1 [Example 302, 2-Cyclopentyl-3-(4-fluoro-phenyl)-6-methyl-2,4,5,6,7,8-hexahydro-1,2,6-triaza-azulene]	100 nM	0.2 nM	1.3 nM	21.5 nM	–
